Where “and” joins values, the source holds several entries; their conditions need not be identical. Identical values can stand only once.
System: CEM cells
Assay: Non-targeted LC-MS metabolite profiling: percent [13C6]glucose labeling and relative metabolite levels
Format: cell-based, human
Settings: CEM cells, 12 h following release from G1 arrest, replicates #1-#6
Description: To further investigate the functions of dCK and ATR at the G1/S transition in CEM cells, a non-targeted liquid chromatography mass spectrometry (LC-MS) assay was used to determine the utilization of labeled [^13C6]glucose and [^13C9,^15N3]deoxycytidine, the main substrates for de novo and salvage nucleotide biosynthesis, respectively. Of the 166 metabolites identified in CEM cells treated with VE-822 and/or dCKi, 105 metabolites found in all four treatment groups contained glucose-derived ^13C atoms. […] These metabolites included intermediates such as rUTP, rCTP and rCDP in the de novo dCTP biosynthesis (Fig. 1d). […] However, several deoxyribonucleotides, including dCTP, were below the limit of detection of the non-targeted LC-MS approach, raising the concern that the sensitivity of this assay is not sufficient to measure the contribution of the salvage pathway or the ratio of de novo and salvage biosynthesis to these pools. To address this problem, a newly developed targeted MS assay was developed (Fig. 1e and Supplementary Fig. 3). In this assay, samples containing either extracted dNTPs or hydrolyzed DNA from labeled cells are separated by LC for detection by a triple quadrupole mass spectrometer using multiple reaction monitoring (LC-MS/MS-MRM). The first (Q1) and third (Q3) quadrupoles function as mass filters, while the second (Q2) quadrupole serves as a collision chamber (Fig. 1e). For instance, to profile the biosynthetic composition of deoxycytidine (dC) derived from hydrolyzed DNA or dCTP, an intact, protonated dC ion is selected in Q1, followed by fragmentation of the glycosidic bond, which releases protonated cytosine in Q2, that is filtered in Q3 and detected to generate an ion chromatogram. The peak areas for the ion chromatograms of salvage [^13C9,^15N3]dC (red trace), de novo [^13C5]dC (black trace, from [^13C6]glucose) and unlabeled dC (gray trace) (Fig. 1e) are used to determine the relative contributions of the de novo and salvage routes both to dCTP pools and to DNA-incorporated dCTP.
Cells were transferred into RPMI-1640 without glucose and supplemented with 10% dialyzed FBS (Gibco) containing the following labeled substrates: precursors for de novo [U-^13C6]glucose (Sigma-Aldrich, 389374) at 11 mM; precursors for purine salvage [U-^13C10,^15N5]dA (Cambridge Isotopes, CIL 3896), [^15N5]dA (Cambridge Isotopes, NLM-3895) and [^15N5]dG (Cambridge Isotopes, NLM-3899) at 5 µM or as indicated; and precursors for pyrimidine salvage: [U-^13C9,^15N3]dC (Silantes, 124603602) and [U-^13C10,^15N2]dT (Cambridge Isotopes, CNLM-3902) at 5 µM and [^15N2]orotate (Cambridge Isotopes, NLM-1048) at indicated concentrations. The cells were incubated for 12 h or as indicated before sample collection and processing. […]
Non-targeted LC-MS metabolic assays. 1 x 10^6 cells were washed with ice-cold 150 mM ammonium acetate twice before adding 1 mL of ice-cold 80% methanol with 10 nM norvaline as an internal standard. After vigorous vortexing, samples were centrifuged at maximum speed, the aqueous layer was transferred to a glass vial and the metabolites were dried under vacuum. Metabolites were resuspended in 50 μL 70% acetonitrile (ACN) and 5 μL of this solution used for the mass spectrometer-based analysis. The analysis was performed on a Q Exactive (Thermo Scientific) in polarity-switching mode with positive voltage 4.0 kV and negative voltage 4.0 kV. The mass spectrometer was coupled to an UltiMate 3000RSLC (Thermo Scientific) UHPLC system. Mobile phase A was 5 mM ammonium acetate (NH4AcO), pH 9.9, B was acetonitrile and the separation achieved on a Luna […] NH2 100 A column (150 × 2.0 mm, Phenomenex). The flow was 200 μL/min, and the gradient ran from 15% A to 95% A in 18 min, followed by an isocratic step for 9 min and re-equilibration for 7 min. Metabolites were detected and quantified as area under the curve based on retention time and accurate mass (≤ 3 p.p.m.) using the TraceFinder 3.1 (Thermo Scientific). Relative amounts of […]

[1] = metabolite CDP (KEGG C00112), listed as D
[2] = metabolite CDP-EtA (KEGG C00570), listed as D
[3] = metabolite CMP (KEGG C00055), listed as D
[4] = metabolite CTP (KEGG C00063), listed as D
[5] = metabolite Choline (KEGG C00114), listed as D
[6] = metabolite Cinnamic acid (KEGG C00423), listed as D
[7] = metabolite Cit (KEGG C00158), listed as D
[8] = metabolite Creatine (KEGG C00300), listed as D
[9] = metabolite Creatinine (KEGG C00791), listed as D
[10] = metabolite Cytosine (KEGG C00380), listed as D
[11] = metabolite DMG (KEGG C01026), listed as D
[12] = metabolite Dihydroorotate (KEGG C00337), listed as D
[13] = metabolite F16BP (KEGG C00354), listed as D
[14] = metabolite Folate (KEGG C00504), listed as D
[15] = metabolite Fru (KEGG C00095), listed as D
[16] = metabolite Fum (KEGG C00122), listed as D
[17] = metabolite G (KEGG C00387), listed as D
[18] = metabolite dG (KEGG C00330), listed as D

COc1ccc(-c2nc([C@@H](C)Sc3nc(N)cc(N)n3)c(C)s2)cc1OCCNS(C)(=O)=O [dCKi]
Glucose labeling of CDP [1]: 77.96% and 72.97% and 80.28% and 0.44% and 79.17% and 76.50% | Relative level of CDP [1]: 0.5 and 1.3 and 2.1 and 0.0678 and 0.334 and 0.7 | Glucose labeling of CDP-EtA [2]: 70.01% and 72.58% and 83.31% and 72.60% and 75.82% and 67.23% | Relative level of CDP-EtA [2]: 0.9 (4×) and 1.4 and 1.0 | Glucose labeling of CMP [3]: 71.05% and 65.79% and 64.24% and 62.92% and 70.94% and 75.98% | Relative level of CMP [3]: 1.0 and 0.663 and 1.8 and 0.2 and 0.366 and 0.8 | Glucose labeling of CTP [4]: 81.19% and 79.64% and 75.43% and 84.05% and 71.54% and 81.90% | Relative level of CTP [4]: 0.345 and 0.9 and 1.2 and 0.0446 and 0.234 and 0.445 | Glucose labeling of Choline [5]: 0.00256% and 0.00252% and 0.00247% (2×) and 0.00241% and 0.00245% | Relative level of Choline [5]: 1.1 and 1.3 (2×) and 0.842 and 0.8 (2×) | Glucose labeling of Cinnamic acid [6]: 0.00% (5×) and 1.11e-14% | Relative level of Cinnamic acid [6]: 1.2 and 1.3 and 1.6 and 0.8 (2×) and 0.7 | Glucose labeling of Cit [7]: 50.63% and 52.82% and 53.30% and 41.63% and 44.16% and 45.64% | Relative level of Cit [7]: 0.8 and 1.3 and 1.4 and 0.367 and 0.6 and 0.7 | Glucose labeling of Citraconic acid (metabolite Citraconic acid (KEGG C02226)): 0.00% | Relative level of Citraconic acid (metabolite Citraconic acid (KEGG C02226), listed as D): 1.1 and 1.0 (2×) and 1.3 and 0.645 and 0.9 | Glucose labeling of Citrulline (metabolite Citrulline (KEGG C00327)): 0.18% | Relative level of Citrulline (metabolite Citrulline (KEGG C00327), listed as D): 2.2 and 0.259 and 0.529 and 0.8 and 0.4 and 0.527 | Glucose labeling of Creatine [8]: 0.000817% and 0.00101% and 2.36e-6% and 0.000311% and 0.000285% and 0.000183% | Relative level of Creatine [8]: 1.0 (4×) and 1.1 (2×) | Glucose labeling of Creatinine [9]: 0.000768% and 0.000756% and 0.000758% and 0.000811% and 0.00078% and 0.000884% | Relative level of Creatinine [9]: 1.2 and 0.952 and 1.0 (2×) and 0.8 and 0.9 | Glucose labeling of Cystathionine (metabolite Cystathionine (KEGG C02291)): 0.26% | Relative level of Cystathionine (metabolite Cystathionine (KEGG C02291), listed as D): 1.9 (2×) and 1.8 and 0.9 and 0.634 and 0.644 | Glucose labeling of Cytosine [10]: 0.000526% and 0.000773% and 0.000656% and 0.000291% and 0.000873% and 0.0323% | Relative level of Cytosine [10]: 1.6 and 0.8 and 1.1 (2×) and 1.4 and 2.5 | Glucose labeling of DHAP (metabolite DHAP (KEGG C00111)): 100.00% | Relative level of DHAP (metabolite DHAP (KEGG C00111)): 0.162 | Glucose labeling of DMG [11]: 0.05% and 0.06% and 0.000349% and 0.02% and 0.0219% and 0.03% | Relative level of DMG [11]: 1.0 (2×) and 1.3 (2×) and 1.4 and 1.1 | Glucose labeling of Dihydroorotate [12]: 2.31% and 4.79% and 3.17% and 1.21% and 1.28% and 0.88% | Relative level of Dihydroorotate [12]: 1.8 and 2.4 and 1.6 and 0.556 and 0.665 and 0.641 | Glucose labeling of F16BP [13]: 45.03% and 62.70% and 85.32% and 37.47% and 50.53% and 49.36% | Relative level of F16BP [13]: 0.184 and 0.186 and 0.7 and 0.137 and 0.132 and 0.115 | Glucose labeling of Folate [14]: 100.00% and 0.00% (4×) and 1.11e-14% | Relative level of Folate [14]: 1.8 and 6.1 and 0.8 and 0.376 and 0.9 | Glucose labeling of Fru [15]: 17.52% and 38.15% and 34.20% and 21.41% and 18.03% and 26.54% | Relative level of Fru [15]: 1.5 and 0.6 and 0.8 and 1.0 and 1.4 and 0.9 | Glucose labeling of Fum [16]: 15.19% and 16.91% and 18.53% and 8.92% and 13.71% and 14.45% | Relative level of Fum [16]: 0.9 and 1.0 and 1.4 and 0.443 and 0.654 and 0.7 | Glucose labeling of G [17]: 100.00% (3×) and 0.55% (3×) | Relative level of G [17]: 1.4 and 0.8 and 0.9 | Glucose labeling of dATP (metabolite dATP (KEGG C00131)): 100.00% | Relative level of dATP (metabolite dATP (KEGG C00131), listed as D): 0.743 and 1.0 | Glucose labeling of dCTP (metabolite dCTP (KEGG C00458)): 100.00% | Relative level of dCTP (metabolite dCTP (KEGG C00458), listed as D): 1.0 and 0.8 and 1.2 | Glucose labeling of dG [18]: 0.40% and 0.52% and 0.55% and 0.48% and 0.47% and 0.42% | Relative level of dG [18]: 1.5 and 0.9 (2×) and 1.1 and 0.8 (2×) | Glucose labeling of dGDP (metabolite dGDP (KEGG C00361)): 100.00% | Relative level of dGDP (metabolite dGDP (KEGG C00361)): 0.0 | Glucose labeling of dTMP (metabolite dTMP (KEGG C00364)): 100.00% | Relative level of dTMP (metabolite dTMP (KEGG C00364), listed as D): 1.6 (2×) and 1.0 and 2.4 | Glucose labeling of dTTP (metabolite dTTP (KEGG C00459)): 100.00% | Relative level of dTTP (metabolite dTTP (KEGG C00459), listed as D): 1.6 and 3.4 and 1.3 | Glucose labeling, Lys: 0.00% | Glucose labeling, NAD+: 0.00% | Glucose labeling, Nicotinamide: 0.00% | Glucose labeling, P-Creatine: 0.0737% | Glucose labeling, P-EtA: 0.0123% | Glucose labeling, PEP: 100.00% | Glucose labeling, Phe: 0.00% | Glucose labeling, Pipecolate: 0.00% | Glucose labeling, Pyr: 100.00% | Glucose labeling, Thr (C00188): 0.00% | Glucose labeling, Trigonelline (C01004): 0.00%

— PMC5556071, “ATR inhibition facilitates targeting of leukemia dependence on convergent nucleotide biosynthetic pathways” (Nature Communications, 2017)
